The test system of one data set is HIV-1DRV^RP20. Put plainly: Antiviral activity against DRV-resistant variant, passage 20. To be noted: Human immunodeficiency virus 1, read-out: EC50 against HIV-1DRV^RP20. The format is cell-based.
The subject of the next data set is MT-2 cells. Put plainly: Cytotoxicity (CC50), MTT assay. Type of data set: cell-based. The following applies: human, 7 days. The protocol: The susceptibility of HIV-1LAI to various drugs was determined as previously described with minor modifications. Briefly, MT-2 cells (10^4/ml) were exposed to 100 50% tissue culture infectious doses (TCID50) of HIV-1LAI in the presence or absence of various concentrations of drugs in 96-well microculture plates and were incubated at 37° C. for 7 days. After 100 μl of the medium was removed from each well, 3-(4,5-dimetylthiazol-2-yl)-2,5-diphenyltetrazolium bromide (MTT) solution (10 μl, 7.5 mg/ml in phosphate-buffered saline) was added to each well in the plate, followed by incubation at 37° C. for 2 h. […] All assays were performed in duplicate or triplicate. […] In determining the drug susceptibility of certain laboratory HIV-1 strains, MT-4 cells were employed as target cells as previously described with minor modifications. In brief, MT-4 cells (10^5/ml) were exposed to 100 TCID50 of drug-resistant HIV-1 strains in the presence or absence of various concentrations of drugs and were incubated at 37° C. On day 7 of culture, the supernatants were harvested and the amounts of p24 Gag protein were determined by using a fully automated chemiluminescent enzyme immunoassay system (Lumipulse F: Fujirebio Inc., Tokyo). […] All assays were performed in duplicate or triplicate. PHA-PBMs were derived from a single donor in each independent experiment. Thus, for obtaining the data, three different donors were recruited.
On the technique in general: Formazan colour is commonly taken as a measure of viable cells.

From US9346820B2, “HIV-1 protease inhibitors having gem-di-fluoro bicyclic P2-ligands” (priority 2013, dated 2016) come the findings set out here.

The term EC50 denotes the concentration that produces a half-maximal response. Take `CC(C)CN(C[C@@H](O)[C@H](Cc1ccccc1)NC(=O)O[C@H]1CO[C@H]2OCC[C@H]21)S(=O)(=O)c1ccc(N)cc1` [DRV, darunavir]: in the data set with HIV-1DRV^RP20, the EC50 came out at 174 nM. Broadly, the CC50 is the concentration that lowers cell viability or growth by half. Low readings indicate greater toxicity to the cells, high ones lower toxicity to the cells. In the data set on MT-2 cells, `CC(C)CN(C[C@@H](O)[C@H](Cc1ccccc1)NC(=O)O[C@H]1CO[C@H]2OCC(F)(F)[C@H]21)S(=O)(=O)c1ccc(N)cc1` [GRL-05010] came in with a CC50 of 37 µM.
